Assays:
[1] = system: Arabidopsis T1 plants transformed with control nucleotide sequence; test: Herbicide resistance effect test of Arabidopsis T1 plants, control sequence (spraying); assay type: in vivo, Arabidopsis thaliana; settings: genotype Control, 560 g ae/ha (1x); for Non-resistant: number of plants of 32 dead 14 days after spraying; for Low resistant: number of plants of 32 incapable of bolting 14 days after spraying; for Moderate resistant: number of plants of 32 with curly rosette leaves 7 days after spraying; for High resistant: number of plants of 32 with growth consistent with blank solvent 7 days after spraying
Excerpt: (§1) 24DT21 gene was used to transform Arabidopsis for the first time. At first, T1 transformants were selected from the background of un-transformed seeds, using glufosinate-ammonium selection scheme. About 20000 T1 seeds are screened among which 139 strains of T1 generation positive transformants (PAT gene) were identified, i.e. the transformation efficiency was about 0.7%. Herbicide resistance effect tests to 2,4-D dimethyl ammonium salt and agroxone of Arabidopsis T1 plants transformed with 24DT21 nucleotide sequence, control nucleotide sequence respectively and wild-type Arabidopsis plants were performed after 18 days of planting.
(§2) Arabidopsis T1 plants transformed with 24DT21 nucleotide sequence, control nucleotide sequence respectively and wild-type Arabidopsis plants were sprayed with 2,4-D dimethyl ammonium salt (560 g ae/ha, 1-fold concentration in field), agroxone (560 g ae/ha, 1-fold concentration in field) and blank solvent (water). Resistance conditions of the plants were counted 7 days and 14 days after spraying. Plants with growth conditions consistent with blank solvent (water) 7 days after spaying were classified as highly resistant plants; Plants with curly rosette leaves 7 days after spaying were classified as moderately resistant plants; Plants incapable of bolting 14 days after spaying were classified as low-resistant plants and the dead plants 14 days after spaying were classified as non-resistant plants. Because each Arabidopsis T1 plant is an independent transformation event, significant differences of individual T1 responses can be expected under a given dose.

[2] = system: Soybean plants containing control nucleotide sequence (S4, S5); test: Herbicide-resistance effect of soybean plants, control sequence (spraying, damage degree); assay type: in vivo; settings: 2240 g ae/ha (4x); for Average damage % 6 HAT: 6 hours after spraying; for Average damage % 2 DAT: 2 days after spraying; for Average damage % 7 DAT: 7 days after spraying; for Average damage % 14 DAT: 14 days after spraying
Protocol: (§3) Herbicide resistance effects tests to 2,4-D dimethyl ammonium salt and agroxone of soybean plants containing 24DT21 nucleotide sequence and control nucleotide sequence respectively and wild type soybean plants (stages V3-V4) were performed respectively.
(§4) Soybean plants containing 24DT21 nucleotide sequence, control nucleotide sequence and wild type soybean plants were taken and spayed with 2,4-D dimethyl ammonium salt (2240 g ae/ha, four-folds concentration in field), agroxone (2240 g ae/ha, four-folds concentration in field) and blank solvent (water). Take statistics of the damage degree of each plant caused by herbicides according to the curling degree of leaves and the damage degree of growing point six hours ([…]), two days (2DAT), seven days (7DAT) and 14 days (14DAT) after spraying respectively: if leaves are flat like wild-type leaves and the growing point is intact, the damage degree is 0%; if leaves curl up and wilt and the growing point is died, the damage degree is 100%. There are three strains contained a transferred 24DT21 nucleotide sequence (S1, S2 and S3), two strains contained a transferred control sequence (S4 and S5) and one wild-type strain (CK1) in total; select 10˜15 plants from each strain for testing.

[3] = system: Soybean plants containing 24DT21 nucleotide sequence (S1, S2, S3); test: Herbicide-resistance effect of transgenic soybean T1 plants (spraying, damage degree); assay type: in vivo; settings: 2240 g ae/ha (4x); for Average damage % 6 HAT: 6 hours after spraying; for Average damage % 2 DAT: 2 days after spraying; for Average damage % 7 DAT: 7 days after spraying; for Average damage % 14 DAT: 14 days after spraying
Protocol: as §3, §4

[4] = system: wild type corn plants (CK2); test: Herbicide-resistance effect test of wild type corn (spraying, prop root development); assay type: in vivo; settings: wild type corn strain CK2, 8960 g ae/ha (16x), 21 days after spraying; for Abnormal development of brace roots / Normal development of brace roots: number of plants
Protocol: (§5) Herbicide resistance effects tests to 2,4-D dimethyl ammonium salt and agroxone of corn plants containing 24DT21 nucleotide sequence, control nucleotide sequence respectively and wild type corn plants (stages V3-V4) were performed respectively.
(§6) Corn plants containing 24DT21 nucleotide sequence, control nucleotide sequence respectively and wild type corn plants were taken and spayed with 2,4-D dimethyl ammonium salt (8960 g ae/ha, 16-folds concentration in field), agroxone (8960 g ae/ha, 16-folds concentration in field) and blank solvent (water) respectively. Prop root development was counted 21 days after spaying. Three strains (S6, S7 and S8) of corn plants transformed with 24DT21 nucleotide sequence, two strains (S9 and S10) of corn plants transformed with control nucleotide sequence and 1 strain of wild type (CK2) corn were selected and 10-15 plants from each stain were tested.

[5] = system: wild type soybean plants (CK1); test: Herbicide-resistance effect of wild type soybean (spraying, damage degree); assay type: in vivo; settings: wild-type soybean strain CK1, 2240 g ae/ha (4x); for Average damage % 6 HAT: 6 hours after spraying; for Average damage % 2 DAT: 2 days after spraying; for Average damage % 7 DAT: 7 days after spraying; for Average damage % 14 DAT: 14 days after spraying
Protocol: as §3, §4

[6] = system: Corn plants containing 24DT21 nucleotide sequence (S6, S7, S8); test: Herbicide-resistance effect test of transgenic corn T1 plants (spraying, prop root development); assay type: in vivo; settings: 8960 g ae/ha (16x), 21 days after spraying; for Abnormal development of brace roots / Normal development of brace roots: number of plants
Protocol: as §5, §6

[7] = system: Corn plants containing control nucleotide sequence (S9, S10); test: Herbicide-resistance effect test of corn plants, control sequence (spraying, prop root development); assay type: in vivo; settings: 8960 g ae/ha (16x), 21 days after spraying; for Abnormal development of brace roots / Normal development of brace roots: number of plants
Protocol: as §5, §6

[8] = system: Arabidopsis T1 plants transformed with 24DT21 nucleotide sequence; test: Herbicide resistance effect test of transgenic Arabidopsis T1 plants (spraying); assay type: in vivo, Arabidopsis thaliana; settings: genotype 24DT21, 560 g ae/ha (1x); for Non-resistant: number of plants of 32 dead 14 days after spraying; for Low resistant: number of plants of 32 incapable of bolting 14 days after spraying; for Moderate resistant: number of plants of 32 with curly rosette leaves 7 days after spraying; for High resistant: number of plants of 32 with growth consistent with blank solvent 7 days after spraying
Excerpt: as §1, §2

[9] = system: wild-type Arabidopsis plants; test: Herbicide resistance effect test of wild-type Arabidopsis (spraying); assay type: in vivo, Arabidopsis thaliana; settings: genotype Wild, 560 g ae/ha (1x); for Non-resistant: number of plants of 32 dead 14 days after spraying; for Low resistant: number of plants of 32 incapable of bolting 14 days after spraying; for Moderate resistant: number of plants of 32 with curly rosette leaves 7 days after spraying; for High resistant: number of plants of 32 with growth consistent with blank solvent 7 days after spraying
Excerpt: as §1, §2

[10] = soybean strain S4 (control sequence)
[11] = soybean strain S5 (control sequence)
[12] = corn strain S9 (control sequence)
[13] = corn strain S10 (control sequence)

## CNC.O=C(O)COc1ccc(Cl)cc1Cl [2,4-D dimethyl ammonium salt]
[1]
  Non-resistant: 32
  Low resistant: 0
  Moderate resistant: 0
  High resistant: 0
[2]; [10]
  Average damage % 6 HAT: 46%
  Average damage % 2 DAT: 76%
  Average damage % 7 DAT: 96%
  Average damage % 14 DAT: 100%
[2]; [11]
  Average damage % 6 HAT: 53%
  Average damage % 2 DAT: 77%
  Average damage % 7 DAT: 91%
  Average damage % 14 DAT: 100%
[3]; soybean strain S1 (24DT21)
  Average damage % 6 HAT: 6%
  Average damage % 2 DAT: 4%
  Average damage % 7 DAT: 0%
  Average damage % 14 DAT: 0%
[3]; soybean strain S2 (24DT21)
  Average damage % 6 HAT: 11%
  Average damage % 2 DAT: 4%
  Average damage % 7 DAT: 0%
  Average damage % 14 DAT: 0%
[3]; soybean strain S3 (24DT21)
  Average damage % 6 HAT: 3%
  Average damage % 2 DAT: 0%
  Average damage % 7 DAT: 0%
  Average damage % 14 DAT: 0%
[4]
  Proportion of normal development of brace roots: 0%
  Abnormal development of brace roots: 15
  Normal development of brace roots: 0
[5]
  Average damage % 6 HAT: 48%
  Average damage % 2 DAT: 72%
  Average damage % 7 DAT: 94%
  Average damage % 14 DAT: 100%
[6]; corn strain S6 (24DT21)
  Proportion of normal development of brace roots: 100.00%
  Abnormal development of brace roots: 0
  Normal development of brace roots: 12
[6]; corn strain S7 (24DT21)
  Proportion of normal development of brace roots: 100.00%
  Abnormal development of brace roots: 0
  Normal development of brace roots: 13
[6]; corn strain S8 (24DT21)
  Proportion of normal development of brace roots: 100.00%
  Abnormal development of brace roots: 0
  Normal development of brace roots: 11
[7]; [12]
  Proportion of normal development of brace roots: 0%
  Abnormal development of brace roots: 12
  Normal development of brace roots: 0
[7]; [13]
  Proportion of normal development of brace roots: 0%
  Abnormal development of brace roots: 11
  Normal development of brace roots: 0
[8]
  Non-resistant: 4
  Low resistant: 1
  Moderate resistant: 3
  High resistant: 24
[9]
  Non-resistant: 32
  Low resistant: 0
  Moderate resistant: 0
  High resistant: 0

## Cc1cc(Cl)ccc1OCC(=O)O [agroxone]
[1]
  Non-resistant: 32
  Low resistant: 0
  Moderate resistant: 0
  High resistant: 0
[2]; [10]
  Average damage % 6 HAT: 38%
  Average damage % 2 DAT: 69%
  Average damage % 7 DAT: 87%
  Average damage % 14 DAT: 100%
[2]; [11]
  Average damage % 6 HAT: 47%
  Average damage % 2 DAT: 74%
  Average damage % 7 DAT: 92%
  Average damage % 14 DAT: 100%
[3]; soybean strain S1 (24DT21)
  Average damage % 6 HAT: 10%
  Average damage % 2 DAT: 5%
  Average damage % 7 DAT: 0%
  Average damage % 14 DAT: 0%
[3]; soybean strain S2 (24DT21)
  Average damage % 6 HAT: 16%
  Average damage % 2 DAT: 11%
  Average damage % 7 DAT: 6%
  Average damage % 14 DAT: 0%
[3]; soybean strain S3 (24DT21)
  Average damage % 6 HAT: 7%
  Average damage % 2 DAT: 4%
  Average damage % 7 DAT: 0%
  Average damage % 14 DAT: 0%
[4]
  Proportion of normal development of brace roots: 0%
  Abnormal development of brace roots: 15
  Normal development of brace roots: 0
[5]
  Average damage % 6 HAT: 34%
  Average damage % 2 DAT: 61%
  Average damage % 7 DAT: 82%
  Average damage % 14 DAT: 100%
[6]; corn strain S6 (24DT21)
  Proportion of normal development of brace roots: 100.00%
  Abnormal development of brace roots: 0
  Normal development of brace roots: 11
[6]; corn strain S7 (24DT21)
  Proportion of normal development of brace roots: 100.00%
  Abnormal development of brace roots: 0
  Normal development of brace roots: 12
[6]; corn strain S8 (24DT21)
  Proportion of normal development of brace roots: 100.00%
  Abnormal development of brace roots: 0
  Normal development of brace roots: 13
[7]; [12]
  Proportion of normal development of brace roots: 0%
  Abnormal development of brace roots: 13
  Normal development of brace roots: 0
[7]; [13]
  Proportion of normal development of brace roots: 0%
  Abnormal development of brace roots: 10
  Normal development of brace roots: 0
[8]
  Non-resistant: 7
  Low resistant: 2
  Moderate resistant: 2
  High resistant: 21
[9]
  Non-resistant: 32
  Low resistant: 0
  Moderate resistant: 0
  High resistant: 0

— US10562944B2, “Herbicide-resistant protein, encoding gene and use thereof” (BEIJING DABEINONG BIOTECHNOLOGY CO., LTD., priority 2015, dated 2020)
